The values that follow come from patent US20250082781A1, “METHODS OF LOWERING BLOOD GLUCOSE AND TREATING TYPE 2 DIABETES BY ACTIVATION OF PDE4D3” (Salk Institute for Biological Studies, priority 2021, published 2025).

One experiment has as its system cAMP. As to the kind of experiment: cAMP levels in 3T3-L1 adipocytes (ELISA, biosensor, CRE-Luc reporter). Format: cell-based. How it is done: 3T3-L1 cells were transduced with viral particles ([…]) in 24 well plates. Media was replaced after overnight incubation. 3-4 days after AAV infection, cells were treated as described for lipolysis assay. For cAMP analysis by biosensors, Downward Green cADDis cAMP Sensor (D0200G) and control mNeon Green (F0500G) produced in BacMam system was purchased from Montana Molecular. Brightfield and fluorescence images were taken every 10-20 min in I IncuCyte® Live-cell analysis system (Sartorius) and images were analyzed by IncuCyte® Analysis Software. High-resolution live cell imaging was performed with LSM 880 Airyscan microscope at 40× objective.

Experiment [1] has as its system endogenous glucose production. As to the kind of experiment: Hyperinsulinemic clamp in ob/ob mice. The format is in vivo, mouse. Particulars: FGF1 0.5 mg/kg every other day for a week. The protocol:
Before the test, mice were equipped with a permanent catheter in the right atrium via the jugular vein and were allowed to recover over a period of at least 3 days. After the recovery period, the mice were placed in experimental cages. All infusion experiments were performed in conscious, unrestrained mice as described previously (van Dijk et al., 2003). During the experiment, blood glucose levels were determined every 15 minutes using a Lifescan EuroFlash glucose meter. For GC-MS analysis of [U-^13C] glucose, bloodspots on filter paper were collected from the tail vein every 30 minutes.
Ob/ob mice were treated for 1 week with rFGF1 (0.5 mg kg^−1 every other day for one week). Steady state glucose fluxes were determined for basal and hyperinsulinemic-euglycemic clamp conditions. During the first period, mice were infused with a solution containing a tracer of [U-13C] glucose (2.5 mg/ml Cambridge Isotope Laboratories, Andover, MA) at an infusion rate of 0.54 ml/h. With respect to the final period, blood glucose levels were clamped at 20 mM. For this, the mice were infused at a constant rate of 0.135 ml/h with a mixture of insulin (44 mU/ml, Actrapid, Novo Nordisk, Bagsvaerd, Denmark), somatostatin (20 μg/ml, UCB Breda, the Netherlands), 1% BSA, and glucose (200 mg/ml from which 3% [U-^13C] glucose). Additionally, a second (variable) infusion was used containing glucose (200 mg/ml from which 3% [U-^13C] glucose) to adjust blood glucose levels.

The test system of experiment [2] is human SVF-derived adipocytes. As to the kind of experiment: In vitro lipolysis assay (FFA release), human SVF-derived adipocytes. Format: cell-based. The protocol:
Differentiation of pre-adipocytes were based on previously published methods (Bunnell et al., 2008). Briefly, 3T3-L1 pre-adipocytes were grown to full confluence in DMEM, 10% FBS (GemCell, 100-500), 10 mM HEPES and antibiotic-antimycotic (full growth media). 2 days later, differentiation was induced by replacing the media with 1 μM dexamethasone, 1 μM rosiglitazone, 500 μM IBMX and 5 μg/ml insulin in full growth media 2 days later after reaching full confluence. Two days later media was replaced by differentiation induction media with 1 μM rosiglitazone and 5 μg/ml insulin for 4 days with media change after 2 days. Cells were kept in maintenance medium (full growth media with 5 μg/ml insulin) for 4 more days for full differentiation. For differentiation of mouse SVF derived adipocytes, the protocol was same except DMEM/F12 (10565018, ThermoFisher) was used as base media and initial differentiation induction media was kept for 3 days. For differentiation of human subcutaneous adipocytes, protocol and media from the manufacturer (C-12735, C-39437, Promocell) were used. […]
For in vitro lipolysis assay, cells were washed with PBS and media were changed to full growth media 1 day before experiment. […] FFAs were measured in the media using a commercial kit (Wako-NEFAHR2) and normalized to protein concentration. […] FFAs were measured and normalized by the explant weights.

Regarding “FGF1: Recombinant fibroblast growth factor 1 protein, dissolved in PBS, injected subcutaneously”, the “isoproterenol-induced increases in cAMP and cAMP/PKA signaling” value with cAMP (FGF1 pretreatment, ISO 100 nM) is recorded as “attenuated isoproterenol-induced increases in cAMP”. The “FGF1-induced attenuation of isoproterenol-driven increase in cAMP with PDE4 inhibitor” value in the experiment with cAMP (live 3T3-L1 cells, cAMP biosensor, roflumilast 2 μM) is given as “lost”. In experiment [1], the “reduction in basal endogenous glucose production (EGP)” value is listed as about 25%. In addition, in experiment [1] (clamp conditions), the “exogenous glucose infusion rate (GIR)” value is reported as “higher” and the “glucose disposal rate (GDR)” value is reported as “not altered”. For the same substance, in experiment [2] (FGF1 100 ng/ml with roflumilast 2 μM), the “anti-lipolytic activity of FGF1 with selective inhibitors of PDE4” value is recorded as “blocked by selective inhibitors of PDE4”. Further, the “basal and isoproterenol-induced lipolysis” value in experiment [2] (FGF1 100 ng/ml, 10 min before ISO 1 nM) was “acutely suppressed basal and isoproterenol-induced lipolysis”.
